# Results taken from US5084082A, “Soybean plants with dominant selectable trait for herbicide resistance” (priority 1990, dated 1992).
# What was measured:
# [1] = tested on: Williams 82 (wild type soybean cultivar); test: Pilot study in modified Hydropot Solo hydroponic system; format: in vivo; conditions: Williams 82, 100 ppb in nutrient solution, 10 days after planting
# Procedure: (§1) A pilot study was conducted to determine whether the modified Hydropot Solo system could be used to consistently differentiate between previously isolated (Sebastian and Chaleff, 1987. Crop Science 27:948-952) SU-tolerant mutants and wild type soybean plants. Four Hydropot Solo units were prepared with each planting tank containing a lower layer of pea gravel and an upper layer of fine vermiculite as described previously. Each reservoir was filled with tap water supplemented with 1/4 tablespoon of Miracle Grow soluble fertilizer per gallon. One hydroponic unit served as an untreated control while the nutrient solution of each of the other three was supplemented with either 100, 300, or 1000 ppb of an experimental sulfonylurea herbicide Compound 12. Ten seeds each of Williams 82 (wild type soybean cultivar), mutant 1-184A, mutant 1-183A, mutant 1-166A, and mutant 1-126A were then planted 2 cm deep into the vermiculite layer of each of the four hydroponic units. The programmable timer was set to irrigate the planting tanks for four 30-minute intervals during each 24-hour period. […] Differences between mutant and wild type became less dramatic as the herbicide concentration increased to 1000 ppb. […] These observations confirmed that the modified Hydropot system could be used to select for herbicide tolerance. […]
# [2] = tested on: SU-tolerant mutants 1-184A, 1-183A, 1-166A, 1-126A; test: as above; format: in vivo, soybean
# Procedure: as §1
# [3] = tested on: mutants that have heritable sulfonylurea tolerance; test: Pilot studies, threshold concentration in hydroponic system; format: in vivo, soybean; conditions: sulfonylurea tolerant mutants, 100 mg/L used to irrigate the hydroponic system
# Excerpt: (§2) The same sulfonylurea concentrations would select only highly resistant plants.
# [4] = tested on: wild type soybeans; test: as above; format: in vivo, soybean; conditions: 100 mg/L used to irrigate the hydroponic system
# Excerpt: as §2
# [5] = tested on: Williams 82; test: Test B postemergence cross resistance test; format: in vivo, soybean; conditions: Glycine max, post-emergence, read-out: mean % injury
# Excerpt: (§3) In the second postemergence test, six true-breeding resistant mutant lines (W4, W17, W19, W20, W23, and W28) were compared to Williams 82 for cross resistance to a broad range of ALS inhibitors including eight sulfonylureas and three imidazolinones. Two seeds were planted in each 10 cm pot and allowed to grow to the second trifoliolate stage. Pots were not thinned back if both plants were at the proper stage. For each of 11 herbicides, two rates (Table VII) were selected based on previous data: the low rate was expected to cause significant injury (but not death) to Williams 82 and the high rate was expected to severely injure or kill Williams 82. All but a few line x rate treatments were replicated twice.
# (§4) In both postemergence tests, plants were returned to the greenhouse after treatment and provided with ample light, moisture, and nutrients to support healthy plant growth. Two to three ratings per pot were recorded over a three-week period and averaged to obtain a single value for each pot For each herbicide, analysis of variance on injury ratings was performed separately. Fisher's least significant difference (LSD) was used to determine the significance of line mean differences at each herbicide rate using the 95% level of confidence. […]
# [6] = tested on: mutant line W17; test: Test B postemergence cross resistance test; format: in vivo, soybean; conditions: Glycine max, post-emergence
# Excerpt: as §3, §4
# [7] = tested on: mutant line W19; test: Test B postemergence cross resistance test; format: in vivo, soybean; conditions: Glycine max, post-emergence
# Excerpt: as §3, §4
# [8] = tested on: mutant line W23; test: Test B postemergence cross resistance test; format: in vivo, soybean; conditions: Glycine max, post-emergence
# Excerpt: as §3, §4
# [9] = tested on: mutant line W28; test: Test B postemergence cross resistance test; format: in vivo, soybean; conditions: Glycine max, post-emergence
# Excerpt: as §3, §4
# [10] = tested on: mutant line W4; test: Test B postemergence cross resistance test; format: in vivo, soybean; conditions: Glycine max, post-emergence
# Excerpt: as §3, §4
# [11] = tested on: mutant line W20; test: Test B postemergence cross resistance test; format: in vivo, soybean; conditions: Glycine max, post-emergence
# Excerpt: as §3
# In both postemergence tests, plants were returned to the greenhouse after treatment and provided with ample light, moisture, and nutrients to support healthy plant growth. Two to three ratings per pot were recorded over a three-week period and averaged to obtain a single value for each pot For each herbicide, analysis of variance on injury ratings was performed separately. Fisher's least significant difference (LSD) was used to determine the significance of line mean differences at each herbicide rate using the 95% level of confidence.
# [12] = tested on: ALS of W20; test: In vitro ALS activity of leaf tissue in the presence of Compounds 8 and 9; format: biochemical, soybean; conditions: W20, 10 ppm
# Excerpt: (§5) At approximately 1 month after transplantation, some of the selections appeared much healthier than others. For example, W4-4, W4-6, W6-1, W6-2, W6-4, W23-10, and W23-11 recovered very well from the seed soak treatment with Compound 8. These plants were suspected of having a higher level of ALS resistance to Compound 8 than did the parental material from which they were derived. The applicant was also interested to see if any of these selections were cross resistant to an imidazolinone herbicide such as Compound 9. To test this hypothesis, leaf tissue of the one-month-old M2 plants was sampled and assayed in vitro for ALS activity in the presence of Compound 8 and Compound 9. The ALS assay procedure was essentially identical to the previously described ALS assay except that the herbicide concentrations tested were 100 ppb Compound 8 and 10 ppm Compound 9. Williams and mutant W20 soybean plants were also assayed as control genotypes for comparison. Williams contains no genes conferring the ALS-based sulfonylurea resistance while W20 is homozygous for a single mutation conferring ALS-based sulfonylurea resistance.
# (§6) Acetolactate synthase (ALS) was extracted from leaves of soybean plants growing vegetatively. The leaves were homogenized in 4 volumes of buffer containing 100 mM hepes (pH 7.5), 1 mM sodium pyruvate, 0.5 mM magnesium chloride, 0.5 mM thiamine pyrophosphate, […], 10% glycerol, 5% PVPP, and 0.2% mercaptoethanol. The homogenate was filtered through cheese cloth and centrifuged at 20,000 g for 20 min. ALS was precipitated from the supernatant with ammonium sulfate. The enzyme was collected between 20 and 60% saturation by centrifugation at 20,000 g for 20 min. The pellet was resuspended in buffer containing 100 mM Hepes, 1 mM sodium pyruvate, and 0.5 mM magnesium chloride, and desalted on PD-10 columns (Pharmacia) equilibrated with the same buffer. ALS assays were carried out in a final volume of 0.5 mL at 30° C. The final reaction mixture contained 100 mM Hepes (pH 7.5), 1 mM magnesium chloride, 60 mM sodium pyruvate, 0.4 mM thiaminepyrophosphate, […], and various concentrations of chlorsulfuron. The assays were initiated with the addition of enzyme ([…]) and terminated with the addition of […] of 6N sulfuric acid. The acidified reaction mixture was heated to 60° C. for 15 min, after which 0.5 mL of 0.5% (W/V) creatine and 0.5 mL of 5% (W/V) napthol (freshly prepared in 2.5 N sodium hydroxide) were added. The reaction mixtures were heated for an additional 15 min at 60° C., and the absorbance was read at 525 nm. Data are expressed in terms of % control (minus Compound 1) activity and are the average of two replications. Fisher's least significant difference (LSD) value (at the 95% level of confidence) was calculated for each Compound 1 concentration to determine the significance of genotype mean differences.
# [13] = tested on: ALS of W23-10; test: as above; format: biochemical, soybean; conditions: W23-10, 10 ppm
# Excerpt: as §5, §6
# [14] = tested on: ALS of W23-11; test: as above; format: biochemical, soybean; conditions: W23-11, 10 ppm
# Excerpt: as §5, §6
# [15] = tested on: ALS of W4-4; test: as above; format: biochemical, soybean; conditions: W4-4, 10 ppm
# Excerpt: as §5, §6
# [16] = tested on: ALS of W4-5; test: as above; format: biochemical, soybean; conditions: W4-5, 10 ppm
# Excerpt: as §5, §6
# [17] = tested on: ALS of W4-6; test: as above; format: biochemical, soybean; conditions: W4-6, 10 ppm
# Excerpt: as §5, §6
# [18] = tested on: ALS of W6-1; test: as above; format: biochemical, soybean; conditions: W6-1, 10 ppm
# Excerpt: as §5, §6
# [19] = tested on: ALS of W6-2; test: as above; format: biochemical, soybean; conditions: W6-2, 10 ppm
# Excerpt: as §5, §6
# [20] = tested on: ALS of W6-4; test: as above; format: biochemical, soybean; conditions: W6-4, 10 ppm
# Excerpt: as §5, §6
# [21] = tested on: ALS of Williams; test: as above; format: biochemical, soybean; conditions: 10 ppm
# Excerpt: as §5, §6
# [22] = tested on: tolerant tomato lines; conditions: cited from earlier work
# [23] = tested on: original cultivar; conditions: original tomato cultivar; cited from earlier work
structure (smiles),measurement,setting,value
"COc1cc(OC)nc(NC(=O)NS(=O)(=O)c2cccc3c2S(=O)(=O)C(C)C3)n1 (single isomer, unassigned) [Compound 12, N-[[(4,6-dimethoxy-2-pyrimidinyl)amino]carbonyl]-2,3,-dihydro-2-methylbenzo [B] thiophene-7-sulfonamide, 1,1-dioxide]",formation of unifoliolate leaves and secondary roots,[1],could not
same,formation of unifoliolate leaves and secondary roots,"[2]; tolerant mutant plants, 100 ppb in nutrient solution, 10 days after planting",able to form both unifoliolate leaves and secondary roots
same,further development on prolonged exposure,"[2]; tolerant mutants, 100 ppb, 20 to 28 days",prevented further development
same,leaf formation,[3],allow unifoliolate (but not trifoliolate) formation
same,leaf and root development,[4],consistently stunt or inhibit leaf and root development
"CC(C)C1(C)N=C(c2nc3ccccc3cc2C(=O)O)NC1=O (stereo not shown) [Compound 9, 2-[4,5-dihydro-4-methyl-4-(1-methylethyl)-5-oxo-1H-imidazol-2-Yl]-3-quinolinecarboxylic acid]",pest or weed control at 250 g/ha,[5],8%
same,pest or weed control at 1000 g/ha,[5],13%
same,soybean crop injury (%) at 250 g/ha,"[6]; W17, 250 g/ha postemergence",0%
same,soybean crop injury (%) at 1000 g/ha,"[6]; W17, 1000 g/ha postemergence",8%
same,percent soybean crop injury at 250 g/ha,"[7]; W19, 250 g/ha postemergence",9%
same,percent soybean crop injury at 1000 g/ha,"[7]; W19, 1000 g/ha postemergence",9%
same,percent soybean injury at 250 g/ha,"[8]; W23, 250 g/ha postemergence",9%
same,percent soybean injury at 1000 g/ha,"[8]; W23, 1000 g/ha postemergence",13%
same,mean % injury to soybean at 250 g/ha,"[9]; W28, 250 g/ha postemergence",9%
same,mean % injury to soybean at 1000 g/ha,"[9]; W28, 1000 g/ha postemergence",15%
same,% crop injury at 250 g/ha,"[10]; W4, 250 g/ha postemergence",13%
same,% crop injury at 1000 g/ha,"[10]; W4, 1000 g/ha postemergence",13%
same,percent crop injury at 250 g/ha,"[11]; W20, 250 g/ha postemergence",5%
same,percent crop injury at 1000 g/ha,"[11]; W20, 1000 g/ha postemergence",15%
same,uninhibited ALS activity as % of control,[12],18.4 % of control
same,uninhibited ALS activity as % of control,[13],19.5 % of control
same,uninhibited ALS activity as % of control,[14],13.0 % of control
same,uninhibited ALS activity as % of control,[15],44.3 % of control
same,uninhibited ALS activity as % of control,[16],19.3 % of control
same,uninhibited ALS activity as % of control,[17],10.7 % of control
same,uninhibited ALS activity as % of control,[18],16.2 % of control
same,uninhibited ALS activity as % of control,[19],11.7 % of control
same,uninhibited ALS activity as % of control,[20],18.7 % of control
same,uninhibited ALS activity as % of control,[21],14.0 % of control
CN(C)C(=O)C(c1ccccc1)c1ccccc1 [diphenamid],reduction in seedling weight,[22],25%
same,reduction in seedling weight,[23],40%
